According to PubChem BioAssay AID264 (DTP/NCI, 2004):
“And” between values parts separate entries of the source, which are not always exact repeats. Identical values can stand only once. Results filed as inconclusive are left out.

Tested on: nude mice, LX-1 lung xenograft intrarenal, tumor weight T/C
Assay: NCI In Vivo Anticancer Drug Screen. Data for tumor model Human Lung LX-1 Xenograft (intrarenal inoculation) in NU/NU Swiss (nude) mice
Settings: endpoint: mean tumor weight change, higher = larger tumour
Method in brief: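 Compound-treated mice carrying transplanted tumors were compared with vehicle-treated controls. Tumor size was the measured end point, and the value is the treated-group measurement divided by the control-group measurement (T/C).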

[1] = dose: 25.0 mg/kg/injection, schedule: Q01DX010 (sc), vehicle: saline with Tween-80
[2] = dose: 50.0 mg/kg/injection, schedule: Q01DX010 (sc), vehicle: saline with Tween-80

CCCCCC1c2cc(O)ccc2OC1N1CCOCC1 (stereo unspecified)
T/C (dose: 600.0 mg/kg/injection, schedule: Q04DX003 (sc), vehicle: saline with Tween-80): 150 % of control | T/C (dose: 1200.0 mg/kg/injection, schedule: Q04DX003 (sc), vehicle: saline with Tween-80): 52 % of control | T/C (dose: 2400.0 mg/kg/injection, schedule: Q04DX003 (sc), vehicle: saline with Tween-80): 89 % of control

O=c1nc(Oc2ccccc2)nc2ncccn12
T/C [1]: 190 % of control | T/C [2]: 165 % of control | T/C (dose: 100.0 mg/kg/injection, schedule: Q01DX010 (sc), vehicle: saline with Tween-80): 118 % of control | T/C (dose: 200.0 mg/kg/injection, schedule: Q01DX010 (sc), vehicle: saline with Tween-80): 210 % of control

CNC(=O)ON(C(C)=O)C(=O)NC
T/C (dose: 12.5 mg/kg/injection, schedule: Q01DX010 (sc), vehicle: saline): 109 % of control | T/C (dose: 25.0 mg/kg/injection, schedule: Q01DX010 (sc), vehicle: saline): 102 % of control

COc1ccc(Cl)[n+]([O-])n1
T/C (dose: 25.0 mg/kg/injection, schedule: Q04DX003 (sc), vehicle: Klucel (hydroxypropylcellulose) (HPC)): 83 % of control | T/C (dose: 50.0 mg/kg/injection, schedule: Q04DX003 (sc), vehicle: Klucel (hydroxypropylcellulose) (HPC)): 60 % of control | T/C (dose: 100.0 mg/kg/injection, schedule: Q04DX003 (sc), vehicle: Klucel (hydroxypropylcellulose) (HPC)): 80 % of control

C/C=C/c1cc2c(c(=O)o1)C(=O)[C@@H](O)[C@H](C)O2
T/C (dose: 25.0 mg/kg/injection, schedule: Q04DX003 (sc), vehicle: saline with Tween-80): 92 % of control | T/C (dose: 50.0 mg/kg/injection, schedule: Q04DX003 (sc), vehicle: saline with Tween-80): 95 % of control | T/C (dose: 100.0 mg/kg/injection, schedule: Q04DX003 (sc), vehicle: saline with Tween-80): 75 % of control and 97 % of control | T/C (dose: 200.0 mg/kg/injection, schedule: Q04DX003 (sc), vehicle: saline with Tween-80): 82 % of control and 87 % of control

N#CC(=C1SCS1)[N+](=O)[O-]
T/C (dose: 6.0 mg/kg/injection, schedule: Q04DX003 (sc), vehicle: saline): 79 % of control | T/C (dose: 12.0 mg/kg/injection, schedule: Q04DX003 (sc), vehicle: saline): 103 % of control | T/C (dose: 24.0 mg/kg/injection, schedule: Q04DX003 (sc), vehicle: saline): 109 % of control | T/C (dose: 48.0 mg/kg/injection, schedule: Q04DX003 (sc), vehicle: saline): 94 % of control

CC(Cc1ccc(O)c(O)c1)C(C)Cc1ccc(O)c(O)c1 (stereo unspecified)
T/C (dose: 300.0 mg/kg/injection, schedule: Q04DX003 (sc), vehicle: saline + alcohol): 107 % of control | T/C (dose: 600.0 mg/kg/injection, schedule: Q04DX003 (sc), vehicle: saline + alcohol): 90 % of control | T/C (dose: 1200.0 mg/kg/injection, schedule: Q04DX003 (sc), vehicle: saline + alcohol): 104 % of control | T/C (dose: 2400.0 mg/kg/injection, schedule: Q04DX003 (sc), vehicle: saline + alcohol): 66 % of control

C(=N/NC1=NCCN1)/c1c2ccccc2c(/C=N\NC2=NCCN2)c2ccccc12
T/C (dose: 18.75 mg/kg/injection, schedule: Q04DX003 (sc), vehicle: suspension in saline): 117 % of control | T/C (dose: 75.0 mg/kg/injection, schedule: Q04DX003 (sc), vehicle: suspension in saline): 72 % of control | T/C (dose: 150.0 mg/kg/injection, schedule: Q04DX003 (sc), vehicle: suspension in saline): 49 % of control

O=c1[nH]c(=O)n(C2CC(O)C(CO)O2)cc1C(F)(F)F (stereo unspecified)
T/C (dose: 50.0 mg/kg/injection, schedule: Q01DX010 (sc), vehicle: saline): 91 % of control | T/C (dose: 100.0 mg/kg/injection, schedule: Q01DX010 (sc), vehicle: saline): 100 % of control | T/C (dose: 200.0 mg/kg/injection, schedule: Q01DX010 (sc), vehicle: saline): 51 % of control | T/C (dose: 400.0 mg/kg/injection, schedule: Q01DX010 (sc), vehicle: saline): 30 % of control

Cc1c(N)nc(C(CC(N)=O)NCC(N)C(N)=O)nc1C(=O)NC(C(=O)NC(C)C(O)C(C)C(=O)NC(C(=O)NCCc1nc(-c2nc(C(=O)NCCCNCCCc3ccccn3)cs2)cs1)C(C)O)C(OC1OC(CO)C(O)C(O)C1OC1OC(CO)C(O)C(OC(N)=O)C1O)c1cnc[nH]1 (stereo unspecified)
T/C (dose: 3.0 mg/kg/injection, schedule: Q01DX010 (sc), vehicle: water): 16 % of control | T/C (dose: 12.0 mg/kg/injection, schedule: Q01DX010 (sc), vehicle: water): -82 % of control

CN1CCN(Cc2nc3cccc4c3c([n+]2[O-])-c2ccccc2-4)CC1
T/C (dose: 12.5 mg/kg/injection, schedule: Q01DX010 (sc), vehicle: saline with Tween-80): 83 % of control | T/C [1]: 161 % of control | T/C [2]: 180 % of control
